Measured values as given in patent US9637469B2, “Pyridine derivative” (Teijin Pharma Limited, priority 2012, dated 2017).
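Further: three stars up to 0.2 µM two stars 0.2-2 µM one star 2-20 µM.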

The compounds below were run against T1, human URAT1 (Homo sapiens, UniProt Q96S37) (assay: Test for inhibition of uric acid transport using human URAT1-expressing cells). Conditions: HEK 293 cells expressing human URAT1; 14C-labeled uric acid 25 μM; uptake 37° C. for 5 min.
T1 construct: Full-length cDNA of human URAT1 (hURAT1)
T1 sequence (Q96S37 1-553): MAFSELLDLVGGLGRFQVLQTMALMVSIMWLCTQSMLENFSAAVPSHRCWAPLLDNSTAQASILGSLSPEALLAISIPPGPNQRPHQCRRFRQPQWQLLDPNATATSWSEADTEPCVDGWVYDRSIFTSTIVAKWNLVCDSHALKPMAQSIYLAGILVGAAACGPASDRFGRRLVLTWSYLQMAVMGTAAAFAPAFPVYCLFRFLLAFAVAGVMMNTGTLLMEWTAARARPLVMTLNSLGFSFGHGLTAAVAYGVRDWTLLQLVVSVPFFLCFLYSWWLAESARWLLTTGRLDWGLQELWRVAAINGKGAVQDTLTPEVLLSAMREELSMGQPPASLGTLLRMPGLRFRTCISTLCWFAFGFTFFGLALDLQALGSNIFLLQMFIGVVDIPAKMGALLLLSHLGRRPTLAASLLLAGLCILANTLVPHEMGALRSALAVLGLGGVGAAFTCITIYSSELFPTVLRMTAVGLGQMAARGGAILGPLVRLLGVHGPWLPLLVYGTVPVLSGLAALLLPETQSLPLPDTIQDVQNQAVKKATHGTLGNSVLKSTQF
Type: cell-based
Method in brief: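 HEK293 cells stably transfected with full-length hURAT1, preincubated 10 min at 37 °C in HBSS with NaCl replaced by Na gluconate. Uptake of 25 μM ¹⁴C-uric acid with compound ran 5 min at 37 °C, then scintillation counting. IC50 derived from % of DMSO-control URAT1-specific uptake.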
`O=C1OCc2nc(-c3cncc(Cl)c3)n(Cc3cc(Cl)ccc3Cl)c21` [Compound A221, 2-(5-chloropyridin-3-yl)-1-(2,5-dichlorobenzyl)-1H-furo[3,4-d]imidazol-6(4H)-one] was tested, and the “Inhibitory Activity (IC50 of uric acid transport inhibition)” value (“Inhibitory Activity” for short) was “* * *”.
For `Cc1nc(-c2cncc(Cl)c2)n(C(C)c2cc(Cl)ccc2Cl)c1C(=O)O` (centres unmarked) [Compound A223, 2-(5-chloropyridin-3-yl)-1-(1-(2,5-dichlorophenyl)ethyl)-4-methyl-1H-imidazole-5-carboxylic acid], the “Inhibitory Activity” value was “* *”.
For `Cc1nc(-c2cncc(F)c2)n(Cc2cc(Cl)sc2Cl)c1C(=O)O` [Compound A225, 1-((2,5-dichlorothiophen-3-yl)methyl)-2-(5-fluoropyridin-3-yl)-4-methyl-1H-imidazole-5-carboxylic acid], the “Inhibitory Activity” value was “* * *”.
For `Cc1nc(-c2cncc(Cl)c2)n(Cc2cc(Cl)sc2Cl)c1C(=O)O` [Compound A226], the “Inhibitory Activity” value was “* * *”.
With `Cc1cncc(-c2nc(C)c(C(=O)O)n2Cc2cc(Cl)sc2Cl)c1` [Compound A227, 1-((2,5-dichlorothiophen-3-yl)methyl)-4-methyl-2-(5-methylpyridin-3-yl)-1H-imidazole-5-carboxylic acid] the “Inhibitory Activity” value was “* * *”.
In the case of `Cc1nc(-c2cncc(F)c2)n(Cc2sc(Cl)cc2Cl)c1C(=O)O` [Compound A228, 1-((2,4-dichlorothiophen-5-yl)methyl)-2-(5-fluoropyridin-3-yl)-4-methyl-1H-imidazole-5-carboxylic acid], the “Inhibitory Activity” value is reported as “* *”.
For `Cc1nc(-c2cncc(Cl)c2)n(Cc2sc(Cl)cc2Cl)c1C(=O)O` [Compound A229, 2-(5-chloropyridin-3-yl)-1-((2,4-dichlorothiophen-5-yl)methyl)-4-methyl-1H-imidazole-5-carboxylic acid], the “Inhibitory Activity” value was “* *”.
For `Cc1cncc(-c2nc(C)c(C(=O)O)n2Cc2sc(Cl)cc2Cl)c1` [Compound A230, 1-((2,4-dichlorothiophen-5-yl)methyl)-4-methyl-2-(5-methylpyridin-3-yl)-1H-imidazole-5-carboxylic acid], the “Inhibitory Activity” value was “* *”.
In the case of `Cc1cncc(-c2nc(C)c(C(=O)O)n2Cc2cc(C)ccc2Cl)c1` [Compound A231, 1-(2-chloro-5-methylbenzyl)-4-methyl-2-(5-methylpyridin-3-yl)-1H-imidazole-5-carboxylic acid], the “Inhibitory Activity” value is reported as “* * *”.
With `Cc1ccc(Cl)c(Cn2c(-c3cncc(Cl)c3)nc(C)c2C(=O)O)c1` [Compound A232, 1-(2-chloro-5-methylbenzyl)-2-(5-chloropyridin-3-yl)-4-methyl-1H-imidazole-5-carboxylic acid] the “Inhibitory Activity” value was “* * *”.
For `Cc1nc(-c2cncc(F)c2)n(Cc2cccc3ccsc23)c1C(=O)O` [Compound A234, 1-(benzo[b]thiophen-7-ylmethyl)-2-(5-fluoropyridin-3-yl)-4-methyl-1H-imidazole-5-carboxylic acid], the “Inhibitory Activity” value was “* *”.
`CC(C)c1nc(-c2cncc(Cl)c2)n(Cc2cccc3ccsc23)c1C(=O)O` [Compound A235, 1-(benzo[b]thiophen-7-ylmethyl)-2-(5-chloropyridin-3-yl)-4-isopropyl-1H-imidazole-5-carboxylic acid] was tested, and the “Inhibitory Activity” value was “* * *”.
For `O=C(O)c1c(C2CC2)nc(-c2cncc(Cl)c2)n1Cc1cccc2ccsc12` [Compound A236, 1-(benzo[b]thiophen-7-ylmethyl)-2-(5-chloropyridin-3-yl)-4-cyclopropyl-1H-imidazole-5-carboxylic acid], the “Inhibitory Activity” value was “* * *”.
For `Clc1cncc(-c2ncc(-c3nnn[nH]3)n2Cc2cc(Cl)ccc2Cl)c1` [Compound A237, 3-chloro-5-(1-(2,5-dichlorobenzyl)-5-(1H-tetrazol-5-yl)-1H-imidazol-2-yl)pyridine], the “Inhibitory Activity” value was “* * *”.
With `Cc1ccc(C)c(Cn2c(-c3ccncc3)nc(C)c2C(=O)O)c1` [Compound A238, 1-(2,5-dimethylbenzyl)-4-methyl-2-(pyridin-4-yl)-1H-imidazole-5-carboxylic acid] the “Inhibitory Activity” value was “* *”.
With `COc1cccc(-c2nc(C)c(C(=O)O)n2Cc2cccc3ccccc23)n1` [Compound A240, 2-(6-methoxypyridin-2-yl)-4-methyl-1-(naphthalen-1-ylmethyl)-1H-imidazole-5-carboxylic acid] the “Inhibitory Activity” value was “* *”.
`Cc1nc(-c2ccncc2)n(Cc2cc(Cl)ccc2Cl)c1C(=O)O` [Compound A244, 1-(2,5-dichlorobenzyl)-4-methyl-2-(pyridin-4-yl)-1H-imidazole-5-carboxylic acid] was tested, and the “Inhibitory Activity” value was “* *”.
`Cc1nc(-c2ccccn2)n(Cc2cc(Cl)ccc2Cl)c1C(=O)O` [Compound A245, 1-(2,5-dichlorobenzyl)-4-methyl-2-(pyridin-2-yl)-1H-imidazole-5-carboxylic acid] was tested, and the “Inhibitory Activity” value was “* * *”.
In the case of `COc1cccc(-c2nc(C)c(C(=O)O)n2Cc2cc(Cl)ccc2Cl)n1` [Compound A246, 1-(2,5-dichlorobenzyl)-2-(6-methoxypyridin-2-yl)-4-methyl-1H-imidazole-5-carboxylic acid], the “Inhibitory Activity” value is reported as “* *”.
`Cc1nc(Oc2ccccn2)n(Cc2cc(Cl)ccc2Cl)c1C(=O)O` [Compound A247, 1-(2,5-dichlorobenzyl)-4-methyl-2-(pyridin-2-yloxy)-1H-imidazole-5-carboxylic acid] was tested, and the “Inhibitory Activity” value was “* *”.
In the case of `Cc1nc(Oc2cccnc2)n(Cc2cc(Cl)ccc2Cl)c1C(=O)O` [Compound A248, 1-(2,5-dichlorobenzyl)-4-methyl-2-(pyridin-3-yloxy)-1H-imidazole-5-carboxylic acid], the “Inhibitory Activity” value is reported as “* * *”.
`Cc1nc(Oc2cncc(Cl)c2)n(Cc2cc(Cl)ccc2Cl)c1C(=O)O` [Compound A250, 2-((5-chloropyridin-3-yl)oxy)-1-(2,5-dichlorobenzyl)-4-methyl-1H-imidazole-5-carboxylic acid] was tested, and the “Inhibitory Activity” value was “* * *”.
`Cc1nc(Oc2cncc(Br)c2)n(Cc2cc(Cl)ccc2Cl)c1C(=O)O` [Compound A251, 2-((5-bromopyridin-3-yl)oxy)-1-(2,5-dichlorobenzyl)-4-methyl-1H-imidazole-5-carboxylic acid] was tested, and the “Inhibitory Activity” value was “* * *”.
`Cc1ncccc1Oc1nc(C)c(C(=O)O)n1Cc1cc(Cl)ccc1Cl` [Compound A252, 1-(2,5-dichlorobenzyl)-4-methyl-2-((2-methylpyridin-3-yl)oxy)-1H-imidazole-5-carboxylic acid] was tested, and the “Inhibitory Activity” value was “* * *”.
In the case of `Cc1nc(Oc2cccnc2Cl)n(Cc2cc(Cl)ccc2Cl)c1C(=O)O` [Compound A253, 2-((2-chloropyridin-3-yl)oxy)-1-(2,5-dichlorobenzyl)-4-methyl-1H-imidazole-5-carboxylic acid], the “Inhibitory Activity” value is reported as “* * *”.
For `Cc1nc(Oc2cccnc2Br)n(Cc2cc(Cl)ccc2Cl)c1C(=O)O` [Compound A254, 2-((2-bromopyridin-3-yl)oxy)-1-(2,5-dichlorobenzyl)-4-methyl-1H-imidazole-5-carboxylic acid], the “Inhibitory Activity” value was “* * *”.
`Cc1cncc(Oc2nc(C)c(C(=O)O)n2Cc2cc(Cl)ccc2Cl)c1` [Compound A255, 1-(2,5-dichlorobenzyl)-4-methyl-2-((5-methylpyridin-3-yl)oxy)-1H-imidazole-5-carboxylic acid] was tested, and the “Inhibitory Activity” value was “* * *”.
With `Cc1ccncc1Oc1nc(C)c(C(=O)O)n1Cc1cc(Cl)ccc1Cl` [Compound A256, 1-(2,5-dichlorobenzyl)-4-methyl-2-((4-methylpyridin-3-yl)oxy)-1H-imidazole-5-carboxylic acid] the “Inhibitory Activity” value was “* * *”.
In the case of `Cc1nc(Oc2cnccc2Cl)n(Cc2cc(Cl)ccc2Cl)c1C(=O)O` [Compound A257, 2-((4-chloropyridin-3-yl)oxy)-1-(2,5-dichlorobenzyl)-4-methyl-1H-imidazole-5-carboxylic acid], the “Inhibitory Activity” value is reported as “* * *”.

Same assay, conditions: HEK 293 cells expressing human URAT1; 14C-labeled uric acid 25 μM; uptake 37° C. for 5 min; read-out: Inhibitory Activity (IC50 of uric acid transport inhibition)
An IC50 of 2 to 20 µM was found for `Cc1nc(-c2cncc(F)c2)n(C(C)c2cc(Cl)ccc2Cl)c1C(=O)O` (centres unmarked) [Compound A222] in this work.
An IC50 of 2 to 20 µM was found for `Cc1cncc(-c2nc(C)c(C(=O)O)n2C(C)c2cc(Cl)ccc2Cl)c1` (centres unmarked) [Compound A224] in this work.
An IC50 of 2 to 20 µM was found for `Cc1nc(-c2ccncc2)n(Cc2cccc3ccccc23)c1C(=O)O` [Compound A239] in this work.
An IC50 of 2 to 20 µM was found for `Cc1ccc2ccccc2c1Cn1c(-c2ccccn2)nc(C)c1C(=O)O` [Compound A241] in this work.
An IC50 of 2 to 20 µM was found for `Cc1nc(-c2ccnc(Cl)c2)n(Cc2cccc3ccccc23)c1C(=O)O` [Compound A242] in this work.
An IC50 of 2 to 20 µM was found for `Cc1nc(-c2ccccn2)n(Cc2cccc3ccccc23)c1C(=O)O` [Compound A243] in this work.
